Measurements taken from patent publication US8481500B2, “Compounds having neuroprotective properties” (Universidad del Pais Vasco, priority 2005, dated 2013).
Entries after “also recorded” stand apart in the source; their conditions may differ.

Experiments:
oligodendrocyte cultures = assay: Oligodendrocyte culture death caused by AMPA; format: cell-based; details: AMPA 10 μM for 5 minutes; polyphenol 10-100000 nM added 24 hours before; read 24 hours later
Description: The oligodendrocyte cultures were in turn incubated with AMPA [(RS)-α-amino-3-hydroxy-5-methyl-4-isoxazolepropionic hydrobromic acid] agonists, at a 10 μM concentration for 5 minutes. The polyphenols, mangiferin and morin, were added 24 hours before the exposure of the agonist and until the end of the experiments at concentrations comprised between 10 and 100000 nM, and cell viability was measured by means of calcein fluorimetry 24 hours later. The values shown in FIG. 1B show the percentage of normalized cell death±S.E.M. of the triplicates according to the logarithm of the concentration from three different experiments. *: p<0.05; **: p<0.01.

[1] = test system: transient cerebral ischemia; assay: Classically conditioned eyelid responses after global ischemia; format: in vivo, Sprague-Dawley rats; details: rats subjected to global ischemia; 10 conditioning sessions
Description: (§1) Four experimental groups of Sprague-Dawley rats (each group contained 20 animals) were randomly selected: control (C), ischemic (ISCH), ischemic animals treated with mangiferin (I+MNG), and ischemic animals treated with morin (I+MOR). Transient cerebral ischemia was induced by means of occlusion of the vertebral and common carotid arteries for 10 minutes. The criteria for determining cerebral ischemia were the bilateral loss of stretch reflex, limb stiffness and mydriasis. The rectal and body temperature was maintained at 37° C. during surgery and the ischemia. […] The group of control animals was treated similarly to the group with ischemia, but none of their common carotid arteries was occluded.
(§2) Mangiferin and morin were administered intraperitoneally at a concentration of 10 mg/kg of body weight, 30 minutes after the ischemic stimulus and then at a concentration of 5 mg/kg every 12 hours for 7 days.
The study of the eyelid responses by means of classic conditioning was carried out in 10 Sprague-Dawley rats per experimental group. Each animal was anesthetized with ketamine (100 mg/kg) and xylazine (20 mg/kg). […]
A quantitative analysis of the classically conditioned eyelid responses from […] (C, dotted line) and mice with ischemia (ISCH, circles), and from mice with ischemia treated with mangiferin (I+MNG, squares) or morin (I+MOR, triangles), is shown in FIG. 4. […]

[2] = test system: superoxide production in the CA1 hippocampus region; assay: Superoxide production in the CA1 hippocampus region after transient cerebral ischemia; format: in vivo, Sprague-Dawley rats; details: 1 day after transient global ischemia; i.p. 10 mg/kg 30 minutes after ischemia, then 5 mg/kg every 12 hours
Description: as §1, §2
The method described by Chan et al., 1998 (J Neurosci 18: 8292-99) was followed. […] The fluorescence was examined in cryostat sections (10 μm) and was analyzed with a fluorescence microscope (Zeiss Axiophot). The images were taken with a digital camera (Axio Vision, Zeiss) and analyzed with the Image Pro Plus program.

[3] = test system: transient cerebral ischemia; assay: NeuN+ cell count in the pyramidal layer of CA1 hippocampus after transient cerebral ischemia; format: in vivo, Sprague-Dawley rats; details: 7 and 70 days after ischemia; compared with placebo; i.p. 10 mg/kg, then 5 mg/kg every 12 hours for 7 days
Description: as §1
Mangiferin and morin were administered intraperitoneally at a concentration of 10 mg/kg of body weight, 30 minutes after the ischemic stimulus and then at a concentration of 5 mg/kg every 12 hours for 7 days. […]
The number of positive NeuN cells was quantified in the pyramidal layer of the CA1 hippocampus in control rats and operated rats, and in animals subjected to transient cerebral ischemia 7 and 70 days after the reperfusion (n=4-5 animals for every experimental group). The amounts were collected both from the left and the right hemisphere of each section analyzed by immunohistochemistry, with two sections for every experiment from at least three independent experiments. […]

[4] = test system: neuron cultures from the brain cortex; assay: Excitotoxic neuronal death in neuron cultures (glutamate or NMDA); format: cell-based, Sprague Dawley rat; details: glutamate or NMDA 50 μM for 10 minutes; antioxidant 100 nM, kept 3 hours; p<0.001 vs agonist only
Description: The neuron cultures were obtained from the brain cortex of Sprague Dawley rat embryos of 18 days of gestation (Larm et al., 1996, Eur J Pharmacol 314: 249-54; Cheung et al., 1998, Neuropharmacol 37: 1419-29). The cells were nourished Neurobasal medium supplemented with B27 supplement (Invitrogen).
The glutamate or NMDA (N-methyl-D-aspartate) agonists were applied, both at a concentration of 50 μM, for 10 minutes. The antioxidants, morin and mangiferin, were added during the exposure of the agonist at a concentration of 100 nM and were maintained in the medium for 3 hours until cell viability was measured by means of fluorescein diacetate. […] The values are shown as the mean±S.E.M. of the quadruplicates from 3-4 different experiments.

Compound: O=c1c2cc(O)c(O)cc2oc2cc(O)c([C@@H]3O[C@H](CO)[C@@H](O)[C@H](O)[C@H]3O)c(O)c12 [mangiferin]
- oligodendroglial death induced by excitotoxic stimuli (cell viability by calcein fluorimetry) (oligodendrocyte cultures): protect from neuronal and oligodendroglial death
- learning capacity (conditioned eyelid responses) [1]: conserve the learning capacity
- fluorescence levels emitted by oxidized hydroethidine in neurons of the pyramidal layer of the CA1 region [2]: reduction
- number of NeuN+ cells in the pyramidal layer of the CA1 hippocampus [3]: larger; also recorded: significant increase of positive NeuN^+ cells
- excitotoxic neuronal death (cell viability by fluorescein diacetate) [4]: significantly attenuates excitotoxic neuronal death

Compound: morin
- oligodendroglial death induced by excitotoxic stimuli (cell viability by calcein fluorimetry) (oligodendrocyte cultures): protect from neuronal and oligodendroglial death
- learning capacity (conditioned eyelid responses) [1]: conserve the learning capacity
- fluorescence levels emitted by oxidized hydroethidine in neurons of the pyramidal layer of the CA1 region [2]: reduction
- number of NeuN+ cells in the pyramidal layer of the CA1 hippocampus [3]: larger; also recorded: significant increase of positive NeuN^+ cells
- excitotoxic neuronal death (cell viability by fluorescein diacetate) [4]: significantly attenuates excitotoxic neuronal death
